The source of these data is patent publication US7041702B1, “Pharmaceutically active compounds and methods of use” (Scion Pharmaceuticals, Inc., priority 1997, dated 2006).

One may read the melting point as the temperature, or range, at which the solid turns liquid.

The test system of one data set is mouse. As to conditions: recognized model for evaluation of neuroprotective drugs; cited from earlier work.
The conditions of data set [1]: in vivo; cited from earlier work.
The test system of the next data set is in vivo models of stroke. As to conditions: variety of in vivo models of stroke; cited from earlier work.
The test system of a further data set is DBA/2 mice. As to the kind of experiment: In vivo anticonvulsant activity in the DBA/2 mouse model (mouse audiogenic assay). Conditions: vs vehicle controls, HCl salt form. How it is done:
As discussed above, preferred compounds of the invention in a standard anticonvulsant in vivo audiogenic test, such as the audiogenic mouse assay of Example 11 which follows, where DBA/2 mice about 20–23 days old are injected intraperitoneally with a test compound 30 minutes prior to being placed in a bell jar with exposure to auditory stimulus of 12 KHz sine wave at 110–120 db. References herein in vivo “audiogenic assay” are intended to refer to that protocol. […] As discussed above, activity in the audiogenic assay has been recognized as indicative that a test compound has neuroprotective properties. See, e.g., M. Tricklebank et al., European Journal of Pharmacology, supra; T. Seyfried, Federation Proceedings, supra.
Compounds were tested for their effectiveness in preventing seizures in DBA/2 mice which have a unique sensitivity to auditory stimulation. Exposure to loud high-frequency sounds can trigger seizure activity in these animals. This sensitivity develops from postnatal day 12 and peaks around day 21 and slowly diminishes as the animals mature. The unusual response to auditory stimulation in this strain of mouse is believed to be due to a combination of early myelination (causing an unusually low excitatory threshold) and delayed development of inhibitory mechanisms.
Mice were injected intraperitoneally with the compound specified in Table I below or with vehicle control, 30 minutes prior to being placed in a bell jar and turning on the auditory stimulus (12 KHz sine wave at 110–120 db). Administered doses are specified in Table I as milligram of compound per kilogram bodyweight of mouse. The auditory stimulus was left on for 60 seconds and mice reactions were timed and recorded. Percentage inhibition was determined with reference to vehicle controls. All compounds were tested in HCl salt form.

Where [2] appears, read: dose 20 mg/kg intraperitoneally 30 minutes prior to auditory stimulus (12 KHz, 110–120 db).

The compound `Cl.N/C(=N\C(=O)c1cccs1)NCCc1ccccc1` registered a melting point of 198 to 200 °C.

In turn, `CCCCOc1ccc(C(=O)/N=C(\N)NCCc2c[nH]c3ccccc23)cc1.Cl` registered a melting point of 158 to 162 °C.

As to `C[C@]12N[C@H](Cc3ccccc31)c1ccccc12` [MK-801], the “activity in mouse audiogenic tests” value in the data set with mouse was “good activity”. For the same compound, the toxicity entry in data set [1] is “has shown toxicity”. Also, the “results in in vivo models of stroke” value with in vivo models of stroke is “good results”.

As to `CCCCOc1ccc(NC(=N)NCCCCc2ccccc2)cc1` [N-(4-butoxyphenyl)-N′-(4-phenylbutyl)guanidine], in the data set on DBA/2 mice (setting [2]), the “Audiogenic Response % Inhib.” value is reported as 97%.

On to `CCOc1ccc(NC(=N)NCCCCc2ccccc2)cc1` [N-(4-ethoxyphenyl)-N′-(4-phenylbutyl)guanidine], for which the “Audiogenic Response % Inhib.” value with DBA/2 mice (setting [2]) stood at 60%.

For the compound `COc1ccc(C(=O)/N=C(\N)NCCCCc2ccccc2)cc1.Cl` [N-(4-methoxybenzoyl)-N′-(4-phenylbutyl)guanidine, hydrochloride], the melting point was in the range of 172 to 174 °C. In addition, the “Audiogenic Response % Inhib.” value in the data set with DBA/2 mice (setting [2]) is reported as 42%.

For the compound `COc1ccc(NC(=N)Nc2ccc(C(C)C)cc2)cc1` [N-(4-methoxyphenyl)-N′-(4-isopropylphenyl)guanidine], the “Audiogenic Response % Inhib.” value with DBA/2 mice (setting [2]) came to 56%.

Consider `Cc1ccc(C(=O)/N=C(\N)Nc2ccc(C(C)C)cc2)cc1.Cl` [N-(4-methylbenzoyl)-N′-(4-isopropylphenyl)guanidine, hydrochloride], for which the “Audiogenic Response % Inhib.” value with DBA/2 mice (setting [2]) was determined as 30%.

With `Cc1ccc(C(=O)/N=C(\N)NCCCCc2ccccc2)cc1.Cl` [N-(4-methylbenzoyl)-N′-(4-phenylbutyl)guanidine, hydrochloride], the “Audiogenic Response % Inhib.” value with DBA/2 mice (dose 10 mg/kg intraperitoneally 30 minutes prior to auditory stimulus (12 KHz, 110–120 db)) was determined as 16%; in the data set with DBA/2 mice (setting [2]), 75%.
